Experimental data from US9732075B2, “Benzimidazole-proline derivatives” (IDORSIA PHARMACEUTICALS LTD, priority 2012, dated 2017).

Columns and labels:
human orexin-2 receptor = human orexin-2 receptor (Homo sapiens (Human), UniProt O43614); assay: In vitro assay: intracellular calcium measurements (FLIPR), antagonistic activity; assay type: cell-based; settings: CHO cells expressing human orexin-2 receptor, orexin-A agonist, geometric mean, read-out: IC50 Ox2
Summary of the method: (§1)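 Dye-loaded CHO cells expressing either human orexin receptor are exposed to test antagonist for 120 min, then stimulated with orexin-A at 3 nM.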

human orexin-1 receptor = human orexin-1 receptor (Homo sapiens (Human), UniProt O43613); assay: as above; assay type: cell-based; settings: CHO cells expressing human orexin-1 receptor, orexin-A agonist, geometric mean, read-out: IC50 Ox1
Summary of the method: as §1

Chain of human orexin-1 receptor (O43613 whole entry): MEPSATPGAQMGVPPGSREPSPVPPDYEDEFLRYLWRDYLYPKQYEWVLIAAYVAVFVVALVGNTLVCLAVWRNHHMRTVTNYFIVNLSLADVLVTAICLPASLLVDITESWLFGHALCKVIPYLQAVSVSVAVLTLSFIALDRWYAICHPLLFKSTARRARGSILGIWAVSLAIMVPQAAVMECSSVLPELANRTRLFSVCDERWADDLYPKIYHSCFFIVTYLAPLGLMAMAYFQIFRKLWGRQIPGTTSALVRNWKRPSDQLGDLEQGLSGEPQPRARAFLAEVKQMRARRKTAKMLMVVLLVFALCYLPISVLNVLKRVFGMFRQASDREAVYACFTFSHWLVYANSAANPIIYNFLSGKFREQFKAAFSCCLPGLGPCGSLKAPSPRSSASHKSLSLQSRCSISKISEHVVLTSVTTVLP
Chain of human orexin-2 receptor (O43614 whole entry): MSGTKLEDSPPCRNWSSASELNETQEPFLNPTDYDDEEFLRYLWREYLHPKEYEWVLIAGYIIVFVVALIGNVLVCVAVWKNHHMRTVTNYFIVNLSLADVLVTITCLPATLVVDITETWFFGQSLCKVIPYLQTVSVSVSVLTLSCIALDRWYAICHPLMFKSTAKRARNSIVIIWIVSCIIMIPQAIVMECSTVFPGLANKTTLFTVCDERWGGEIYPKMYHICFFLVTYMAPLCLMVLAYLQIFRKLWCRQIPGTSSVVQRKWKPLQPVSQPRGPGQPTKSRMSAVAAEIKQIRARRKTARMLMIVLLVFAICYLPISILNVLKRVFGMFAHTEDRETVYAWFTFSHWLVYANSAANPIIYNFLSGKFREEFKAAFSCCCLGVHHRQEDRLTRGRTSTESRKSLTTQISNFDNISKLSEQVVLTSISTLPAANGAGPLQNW

SMILES	IC50 (human orexin-2 receptor)	IC50 (human orexin-1 receptor)
Cc1nc(C(=O)N2CC[C@H](C)[C@H]2c2nc3cc(Cl)cc(C)c3[nH]2)c(-c2cccc(Cl)c2)s1 [Ex. 4.28]	486 nM	2 nM
Cc1nc(C(=O)N2CCC[C@@]2(C)c2nc3cc(OC(F)(F)F)ccc3[nH]2)c(-c2ccccc2C)s1 [Ex. 5.243]	1120 nM	88 nM
CSc1ccc2nc([C@@H]3CCCN3C(=O)c3cnc(C)nc3-c3ccc(C)c(C)c3)[nH]c2c1 [Ex. 1.55]	10 nM	35 nM
Cc1c(Cl)ccc2[nH]c([C@]3(C)CCCN3C(=O)c3ccccc3-n3cccn3)nc12 [Ex. 5.42]	75 nM	49 nM
CSc1ccc2nc([C@@H]3CCCN3C(=O)c3nc(C)sc3-c3cc(F)cc(F)c3)[nH]c2c1 [Ex. 1.44]	120 nM	404 nM
C=C1C[C@@H](c2nc3cc(Cl)c(C(F)(F)F)cc3[nH]2)N(C(=O)c2cc(C)c(C)cc2-n2nccn2)C1 [Ex. 6.181]	2 nM	2 nM
C=C1C[C@@H](c2nc3cc(OC)ccc3[nH]2)N(C(=O)c2nc(N3CCCC3)sc2-c2cccc(F)c2)C1 [Ex. 6.29]	92 nM	69 nM
Cc1ccc(-c2ccc(C)cc2C(=O)N2CCC[C@@]2(C)c2nc3cc(C)c(C)cc3n2C)cc1 [Ex. 7.37]	20 nM	11 nM
C=C1C[C@@H](c2nc3cccc(C)c3[nH]2)N(C(=O)c2nc(C)sc2-c2cccc(OC)c2)C1 [Ex. 6.114]	0.7 nM	16 nM
C=C1C[C@@H](c2nc3ccc(Cl)c(C)c3[nH]2)N(C(=O)c2nc(C)sc2-c2ccc(Br)cc2)C1 [Ex. 6.116]	3 nM	14 nM
Cc1ccc(-c2ccccn2)c(C(=O)N2CCC[C@@]2(C)c2nc3c(C)c(Cl)ccc3[nH]2)c1 [Ex. 5.215]	11 nM	4 nM
Cc1ccc(-n2nccn2)c(C(=O)N2CC[C@H](C)[C@H]2c2nc3cc(C)ccc3[nH]2)c1 [Ex. 4.2]	669 nM	132 nM
COc1cccc(-c2ccc(C)cc2C(=O)N2CCC[C@@]2(C)c2nc3c(C)c(C)ccc3[nH]2)c1 [Ex. 5.110]	14 nM	13 nM
CO[C@@H]1C[C@@H](c2nc3ccc(Cl)c(C)c3[nH]2)N(C(=O)c2ccccc2-c2ccc(F)c(C)c2)C1 [Ex. 3.40]	7 nM	8 nM
C=C1C[C@@H](c2nc3ccc(Cl)c(C)c3[nH]2)N(C(=O)c2cc(C(F)(F)F)ccc2-n2nccn2)C1 [Ex. 6.129]	39 nM	215 nM
Cc1cc2[nH]c([C@@H]3[C@@H](C)CCN3C(=O)c3c(-c4ccccn4)ccc(C)c3F)nc2cc1Cl [Ex. 4.113]	2040 nM	9 nM
Cc1ccc(C(=O)N2CC[C@H](C)[C@H]2c2nc3c(C)c(Cl)ccc3[nH]2)c(-c2ccccc2)c1 [Ex. 4.168]	486 nM	10 nM
COc1cc2nc([C@]3(C)CCCN3C(=O)c3cnc(C)nc3-c3cccc(C)c3)[nH]c2cc1OC [Ex. 5.89]	119 nM	148 nM
CSc1cccc2nc([C@@H]3CCCN3C(=O)c3nc(C)sc3-c3ccc(F)c(F)c3)[nH]c12 [Ex. 1.67]	84 nM	127 nM
Cc1nc(C(=O)N2CC[C@H](C)[C@H]2c2nc3cc(C)c(C)cc3[nH]2)c(-c2ccc(F)cc2)s1 [Ex. 4.90]	2350 nM	6 nM
COc1cccc(C#Cc2ccccc2C(=O)N2CCC[C@@]2(C)c2nc3c(C)cc(Br)cc3[nH]2)c1 [Ex. 5.249]	53 nM	38 nM
Cc1ccc(-n2nccn2)c(C(=O)N2CCC[C@@]2(C)c2nc3c(Br)cc(F)cc3[nH]2)c1 [Ex. 5.25]	81 nM	27 nM
C=C1C[C@@H](c2nc3cc(OC)ccc3[nH]2)N(C(=O)c2nc(C3CC3)sc2-c2ccccc2)C1 [Ex. 6.10]	81 nM	206 nM
Cc1ccc(-n2nccn2)c(C(=O)N2CCC[C@@]2(C)c2nc3cc(Cl)c(Cl)cc3[nH]2)c1 [Ex. 5.7]	29 nM	5 nM
COc1cc2nc([C@@H]3[C@@H](C)CCN3C(=O)c3c(-n4nccn4)ccc(C)c3F)[nH]c2cc1OC [Ex. 4.44]	246 nM	38 nM
COc1ccc(-c2cccc(C)c2)c(C(=O)N2CCC[C@@]2(C)c2nc3ccc(Cl)c(C)c3[nH]2)c1F [Ex. 5.301]	16 nM	24 nM
Cc1nc(C(=O)N2CCC[C@@]2(C)c2nc3c(C)c(Cl)ccc3n2C)c(-c2cccc(Cl)c2)s1 [Ex. 7.33]	3 nM	1 nM
Cc1ccc(C(=O)N2CC[C@H](C)[C@H]2c2nc3c(C)cc(Cl)cc3[nH]2)c(-n2nccn2)c1 [Ex. 4.93]	74 nM	4 nM
CCn1c([C@]2(C)CCCN2C(=O)c2cc(C)ccc2-c2cccc(F)c2)nc2cc(C)c(C)cc21 [Ex. 7.31]	19 nM	8 nM
COc1ccc(-n2nccn2)c(C(=O)N2CCC[C@@]2(C)c2nc3c(C)c(Cl)ccc3[nH]2)c1F [Ex. 5.37]	16 nM	10 nM
